# Test results published in patent US10457655B2, “Compounds and compositions for inhibition of FASN” (FORMA Therapeutics, Inc., priority 2013, dated 2019).
# pIC50: −log10 of the molar value.
# Molecular target: FASN enzyme (Homo sapiens, UniProt P49327)
# Assay: Enzymatic Assay for FASN Inhibitors
# Type: biochemical
# Conditions: not given
# Method: Assays were performed in a 384-well black plate to measure the inhibition of FASN activities by individual compounds herein disclosed. An aliquot of 250 nL of compound was incubated with 10 μL of 40 nM FASN enzyme in assay buffer (50 mM HEPES pH=7.3, 0.5 mM EDTA, 1 mM Ascorbate, 100 mM NaCl and 0.04% TritonX-100) in each well at 25° C. for 60 minutes. After the plate was centrifuged briefly, 10 μL of substrate mix (20 μM Acetyl-CoA, 60 μM Malonyl-CoA, and 100 μM NADPH in assay buffer) was added to each well. The reaction was maintained at 25° C. for 90 minutes. The reaction was then quenched by adding 10 μL of 90 μM 7-Diethylamino-3-(4′-Maleimidylpheynyl)-4-Methylcoumarin in 50/50 Ethanol/H2O solution. The assay plate was incubated at 25° C. for 15 minutes, and read on a plate reader with excitation and emission wavelength at 360 nm and 530 nm, respectively. The IC50 of a given compound was calculated by fitting the dose response curve with a four parameter logistic equation.
# Chain of FASN enzyme (P49327 whole entry): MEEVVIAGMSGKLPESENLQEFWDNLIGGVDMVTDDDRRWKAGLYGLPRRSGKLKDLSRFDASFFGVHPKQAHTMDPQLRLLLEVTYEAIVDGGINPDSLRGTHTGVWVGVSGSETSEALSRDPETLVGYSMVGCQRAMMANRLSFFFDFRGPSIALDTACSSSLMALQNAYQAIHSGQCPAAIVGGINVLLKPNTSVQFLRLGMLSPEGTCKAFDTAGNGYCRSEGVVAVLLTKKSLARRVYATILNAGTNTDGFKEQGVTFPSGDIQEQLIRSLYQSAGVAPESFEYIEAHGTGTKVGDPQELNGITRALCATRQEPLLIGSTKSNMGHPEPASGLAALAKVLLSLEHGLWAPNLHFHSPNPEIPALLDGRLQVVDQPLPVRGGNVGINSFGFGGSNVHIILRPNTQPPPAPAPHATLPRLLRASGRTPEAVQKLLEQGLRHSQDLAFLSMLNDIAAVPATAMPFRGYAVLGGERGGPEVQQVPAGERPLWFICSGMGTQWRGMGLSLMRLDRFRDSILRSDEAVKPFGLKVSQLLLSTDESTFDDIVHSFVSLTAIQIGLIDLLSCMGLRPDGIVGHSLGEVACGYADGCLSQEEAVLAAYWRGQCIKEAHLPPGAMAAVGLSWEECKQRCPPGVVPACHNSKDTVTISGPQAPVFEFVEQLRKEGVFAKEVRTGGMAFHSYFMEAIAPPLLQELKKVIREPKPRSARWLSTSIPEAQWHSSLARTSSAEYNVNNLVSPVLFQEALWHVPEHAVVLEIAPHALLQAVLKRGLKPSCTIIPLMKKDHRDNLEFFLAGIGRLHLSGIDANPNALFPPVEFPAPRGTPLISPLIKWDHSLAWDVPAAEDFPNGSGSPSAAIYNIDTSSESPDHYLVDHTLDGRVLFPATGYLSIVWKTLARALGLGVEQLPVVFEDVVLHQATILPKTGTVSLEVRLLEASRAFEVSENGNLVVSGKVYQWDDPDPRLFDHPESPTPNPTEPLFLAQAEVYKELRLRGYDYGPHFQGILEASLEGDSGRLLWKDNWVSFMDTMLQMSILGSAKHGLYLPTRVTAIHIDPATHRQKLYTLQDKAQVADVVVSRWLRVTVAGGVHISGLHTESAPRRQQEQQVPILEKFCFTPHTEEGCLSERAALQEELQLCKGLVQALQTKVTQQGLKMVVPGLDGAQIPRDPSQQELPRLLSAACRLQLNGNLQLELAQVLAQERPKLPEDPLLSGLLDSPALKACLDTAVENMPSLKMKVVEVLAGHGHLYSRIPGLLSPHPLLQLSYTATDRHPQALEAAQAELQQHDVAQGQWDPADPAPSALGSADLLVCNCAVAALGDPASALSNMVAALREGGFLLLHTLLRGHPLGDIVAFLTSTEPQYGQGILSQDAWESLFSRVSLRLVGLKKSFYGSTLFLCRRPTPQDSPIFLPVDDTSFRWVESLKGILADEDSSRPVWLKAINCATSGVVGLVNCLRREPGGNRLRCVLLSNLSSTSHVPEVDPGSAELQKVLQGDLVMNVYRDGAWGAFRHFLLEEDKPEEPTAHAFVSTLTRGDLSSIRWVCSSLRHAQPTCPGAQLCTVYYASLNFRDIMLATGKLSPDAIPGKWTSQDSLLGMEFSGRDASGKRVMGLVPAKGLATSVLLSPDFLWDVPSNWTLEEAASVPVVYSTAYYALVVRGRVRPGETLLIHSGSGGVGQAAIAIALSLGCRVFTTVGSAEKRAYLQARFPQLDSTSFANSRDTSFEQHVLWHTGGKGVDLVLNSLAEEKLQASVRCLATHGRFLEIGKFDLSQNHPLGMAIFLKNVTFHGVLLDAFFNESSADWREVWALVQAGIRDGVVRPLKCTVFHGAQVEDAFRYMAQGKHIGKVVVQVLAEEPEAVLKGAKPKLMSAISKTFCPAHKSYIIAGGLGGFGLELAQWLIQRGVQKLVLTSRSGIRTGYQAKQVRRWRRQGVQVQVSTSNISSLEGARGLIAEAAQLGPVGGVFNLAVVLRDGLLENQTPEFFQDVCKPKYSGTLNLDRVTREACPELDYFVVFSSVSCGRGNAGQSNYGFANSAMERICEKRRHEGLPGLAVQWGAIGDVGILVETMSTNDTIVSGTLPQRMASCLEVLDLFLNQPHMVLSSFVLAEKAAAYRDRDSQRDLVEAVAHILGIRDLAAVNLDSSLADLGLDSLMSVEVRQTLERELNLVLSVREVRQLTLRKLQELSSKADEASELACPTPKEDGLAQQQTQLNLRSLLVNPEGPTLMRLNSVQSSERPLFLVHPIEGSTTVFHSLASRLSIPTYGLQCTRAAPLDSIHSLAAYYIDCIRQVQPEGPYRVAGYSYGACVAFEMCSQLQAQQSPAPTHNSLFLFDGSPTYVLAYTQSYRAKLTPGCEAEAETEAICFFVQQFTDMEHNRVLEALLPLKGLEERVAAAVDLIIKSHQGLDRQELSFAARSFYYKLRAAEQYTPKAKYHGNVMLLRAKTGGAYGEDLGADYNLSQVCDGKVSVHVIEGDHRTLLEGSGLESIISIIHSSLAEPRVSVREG
row,pIC50,Compound
1,> 6.30,O=C(c1ccc(-c2ccccc2)cc1)N1CCN(C(=O)C2(O)CC2)CC1 [1-({4-[(4-phenylphenyl)carbonyl]piperazin-1-yl}carbonyl)cyclopropan-1-ol]
2,> 6.30,"O=C(c1ccc(N2CCc3[nH]c4ccccc4c3C2)cc1)N1CCN(C(=O)C2(O)CC2)CC1 [1-[4-(4-{1H,2H,3H,4H,5H-pyrido[4,3-b]indol-2-yl}benzoyl)piperazine-1-carbonyl]cyclopropan-1-ol]"
3,> 6.30,"O=C(c1ccc(N2CCc3c([nH]c4ccccc34)C2)cc1)N1CCN(C(=O)C2(O)CC2)CC1 [1-[4-(4-{1H,2H,3H,4H,9H-pyrido[3,4-b]indol-2-yl}benzoyl)piperazine-1-carbonyl]cyclopropan-1-ol]"
4,> 6.30,"O=C(c1ccc(-c2nc3ccccn3c2Cl)c(F)c1)N1CCN(C(=O)C2(O)CC2)CC1 [1-[4-(4-{3-chloroimidazo[1,2-a]pyridin-2-yl}-3-fluorobenzoyl)piperazine-1-carbonyl]cyclopropan-1-ol]"
5,> 6.30,"Cc1n[nH]c2ncc(-c3ccc(C(=O)N4CCN(C(=O)C5(O)CC5)CC4)cc3)cc12 [1-[4-(4-{3-methyl-1H-pyrazolo[3,4-b]pyridin-5-yl}benzoyl)piperazine-1-carbonyl]cyclopropan-1-ol]"
6,> 6.30,"O=C(c1ccc(N2CCc3sccc3C2)cc1)N1CCN(C(=O)C2(O)CC2)CC1 [1-[4-(4-{4H,5H,6H,7H-thieno[3,2-c]pyridin-5-yl}benzoyl)piperazine-1-carbonyl]cyclopropan-1-ol]"
7,> 6.30,"O=C(c1ccc(-c2ccc3ccnn3c2)cc1)N1CCN(C(=O)C2(O)CC2)CC1 [1-[4-(4-{pyrazolo[1,5-a]pyridin-6-yl}benzoyl)piperazine-1-carbonyl]cyclopropan-1-ol]"

# Further lines, the compound ahead of its results:
row,Compound,pIC50
1,"O=C(c1ccc(-c2nc3ccccn3c2Cl)cc1Cl)N1CCN(C(=O)C2(O)CC2)CC1 [1-[4-(2-chloro-4-{3-chloroimidazo[1,2-a]pyridin-2-yl}benzoyl)piperazine-1-carbonyl]cyclopropan-1-ol]",> 6.30
2,"O=C(c1ccc(-c2nc3ccccn3c2Cl)c(Cl)c1)N1CCN(C(=O)C2(O)CC2)CC1 [1-[4-(3-chloro-4-{3-chloroimidazo[1,2-a]pyridin-2-yl}benzoyl)piperazine-1-carbonyl]cyclopropan-1-ol]",> 6.30
3,"O=C(c1ccc(-c2nc3ccccn3c2Cl)cc1F)N1CCN(C(=O)C2(O)CC2)CC1 [1-[4-(4-{3-chloroimidazo[1,2-a]pyridin-2-yl}-2-fluorobenzoyl)piperazine-1-carbonyl]cyclopropan-1-ol]",> 6.30
4,"Cn1cnc2cc(-c3ccc(C(=O)N4CCN(C(=O)C5(O)CC5)[C@@H](CO)C4)cc3)ccc21 [1-[(2R)-2-(hydroxymethyl)-4-[4-(1-methyl-1H-1,3-benzodiazol-5-yl)benzoyl]piperazine-1-carbonyl]cyclopropan-1-ol]",> 6.30
5,"C[C@@H]1CN(C(=O)c2ccc(-c3ccc4c(c3)ncn4C)cc2)CCN1C(=O)C1(O)CC1 [1-[(2R)-2-methyl-4-[4-(1-methyl-1H-1,3-benzodiazol-5-yl)benzoyl]piperazine-1-carbonyl]cyclopropan-1-ol]",> 6.30
6,C[C@@H]1CN(C(=O)c2ccc(-c3ccc(Cl)cc3F)cc2)CCN1C(=O)C1(O)CC1 [1-[(2R)-4-[4-(4-chloro-2-fluorophenyl)benzoyl]-2-methylpiperazine-1-carbonyl]cyclopropan-1-ol],> 6.30
7,"C[C@@H]1CN(C(=O)c2ccc(-c3nc4ccc(F)cc4o3)cc2)CCN1C(=O)C1(O)CC1 [1-[(2R)-4-[4-(6-fluoro-1,3-benzoxazol-2-yl)benzoyl]-2-methylpiperazine-1-carbonyl]cyclopropan-1-ol]",> 6.30
8,"C[C@@H]1CN(C(=O)c2ccc(-c3ccc4c(c3)ncn4C)cc2)C[C@H](C)N1C(=O)C1(O)CC1 [1-[(2R,6S)-2,6-dimethyl-4-[4-(1-methyl-1H-1,3-benzodiazol-5-yl)benzoyl]piperazine-1-carbonyl]cyclopropan-1-ol]",> 6.30
9,"C[C@H]1CN(C(=O)c2ccc(-c3ccc4c(c3)ncn4C)cc2)CCN1C(=O)C1(N)CC1 [1-[(2S)-2-methyl-4-[4-(1-methyl-1H-1,3-benzodiazol-5-yl)benzoyl]piperazine-1-carbonyl]cyclopropan-1-amine]",> 6.30
10,"C[C@H]1CN(C(=O)c2ccc(-c3ccc4c(c3)ncn4C)cc2)CCN1C(=O)C1(O)CC1 [1-[(2S)-2-methyl-4-[4-(1-methyl-1H-1,3-benzodiazol-5-yl)benzoyl]piperazine-1-carbonyl]cyclopropan-1-ol]",> 6.30
11,C[C@H]1CN(C(=O)c2ccc(-c3ccc4cnn(C)c4c3)cc2)CCN1C(=O)C1(O)CC1 [1-[(2S)-2-methyl-4-[4-(1-methyl-1H-indazol-6-yl)benzoyl]piperazine-1-carbonyl]cyclopropan-1-ol],> 6.30
12,C[C@H]1CN(C(=O)c2ccc(-c3ccc4cn(C)nc4c3)cc2)CCN1C(=O)C1(O)CC1 [1-[(2S)-2-methyl-4-[4-(2-methyl-2H-indazol-6-yl)benzoyl]piperazine-1-carbonyl]cyclopropan-1-ol],> 6.30

# Same assay, conditions: FASN enzymatic assay; Table 2-2
row,Compound,pIC50
1,O=C(c1ccc(-c2ccccc2)cc1)N1CCN(C(=O)C2(O)CCC2)CC1 [1-({4-[(4-phenylphenyl)carbonyl]piperazin-1-yl}carbonyl)cyclobutan-1-ol],5.30 to 6.30
2,"O=C(c1ccc(-c2cnc3ccc(Cl)cn23)cc1)N1CCN(C(=O)C2(O)CC2)CC1 [1-({4-[(4-{6-chloroimidazo[1,2-a]pyridin-3-yl}phenyl)carbonyl]piperazin-1-yl}carbonyl)cyclopropan-1-ol]",5.30 to 6.30
3,"COc1ccc2nc(-c3ccc(C(=O)N4CCN(C(=O)C5(O)CC5)CC4)cc3)cn2c1 [1-({4-[(4-{6-methoxyimidazo[1,2-a]pyridin-2-yl}phenyl)carbonyl]piperazin-1-yl}carbonyl)cyclopropan-1-ol]",5.30 to 6.30
4,"O=C(c1ccc(-c2nccc3occc23)cc1)N1CCN(C(=O)C2(O)CC2)CC1 [1-({4-[(4-{furo[3,2-c]pyridin-4-yl}phenyl)carbonyl]piperazin-1-yl}carbonyl)cyclopropan-1-ol]",5.30 to 6.30
5,"O=C(c1ccc(-c2cn3ccnc3cn2)cc1)N1CCN(C(=O)C2(O)CC2)CC1 [1-({4-[(4-{imidazo[1,2-a]pyrazin-6-yl}phenyl)carbonyl]piperazin-1-yl}carbonyl)cyclopropan-1-ol]",5.30 to 6.30
6,"O=C(c1ccc(-c2ccc3nccn3c2)cc1)N1CCN(C(=O)C2(O)CC2)CC1 [1-({4-[(4-{imidazo[1,2-a]pyridin-6-yl}phenyl)carbonyl]piperazin-1-yl}carbonyl)cyclopropan-1-ol]",5.30 to 6.30
7,"O=C(c1ccc(-c2ccn3ccnc3n2)cc1)N1CCN(C(=O)C2(O)CC2)CC1 [1-({4-[(4-{imidazo[1,2-a]pyrimidin-7-yl}phenyl)carbonyl]piperazin-1-yl}carbonyl)cyclopropan-1-ol]",5.30 to 6.30

# Same assay, conditions: FASN enzymatic assay; Table 2-3
row,Compound,pIC50
1,O=C(c1ccc(-c2ccccc2)cc1)N1CCN(C(=O)C2(O)CCCC2)CC1 [1-({4-[(4-phenylphenyl)carbonyl]piperazin-1-yl}carbonyl)cyclopentan-1-ol],≤ 5.30
2,"O=C(c1ccc(-c2cn3cc(F)ccc3n2)cc1)N1CCN(C(=O)C2(O)CC2)CC1 [1-({4-[(4-{6-fluoroimidazo[1,2-a]pyridin-2-yl}phenyl)carbonyl]piperazin-1-yl}carbonyl)cyclopropan-1-ol]",≤ 5.30
